# From patent publication US10118947B2, “Modulation of structured polypeptide specificity” (BICYCLE THERAPEUTICS LIMITED, priority 2013, dated 2018)
# Read-outs that look alike come from different tables or passages of the source. Numbered stars: 1 amine (or outer) side, 2 acyl side, 3 side chain; on linkers, the order of the positions; unused ones are H or OH. Bridge positions count the residues as written; N and C are the ends. Square brackets hold non-standard residues; d marks the D form. Peptide text beside a SMILES is read from it. Phe(4-guanidino) = N=C(N)Nc1ccc(C[C@H](N)C(=O)O)cc1; TBMB = c1c(C[*:1])cc(C[*:3])cc1C[*:2]; NMeR = CN[C@@H](CCCNC(=N)N)C(=O)O; hArg = N=C(N)NCCCC[C@H](N)C(=O)O
# How the values were obtained:
# [1] = Plasma stability profiling Method #1 (MALDI-TOF, 35% plasma), rat plasma; format: in vitro ADME
# Method in brief: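 Qualitative test: 200 µM peptide incubated at 37 °C in 35% rat or human citrated plasma supplemented with PBS, sampled at 0, 3, 24 h then daily up to 10 days. Parent mass tracked by MALDI-TOF; value is time until parent peptide no longer detectable.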
# [2] = Quantitative plasma stability Method #3 (LC-MS, 95% plasma), rat plasma; format: in vitro ADME
# Description: (§1) To obtain plasma stability quantitatively, peptide stock solutions (1 mM in DMSO) were shipped to Biofocus, UK, who performed the analysis. Peptides were diluted to 100 uM with water, and diluted 1:20 in plasma (5 uM final concentration, with the plasma at 95%), sampled as appropriate, precipitated as above, and quantified using a Waters Xevo TQ-MS.
# [3] = Quantitative plasma stability Method #3 (LC-MS, 95% plasma), human plasma; format: in vitro ADME; conditions: Table 2, ex vivo human plasma, read-out: Human Plasma Stability (t½ in hrs) (converted)
# Description: as §1
# rat plasma Kallikrein = target: T1, rat plasma Kallikrein (Rattus norvegicus, UniProt P14272)
# T1 construct: polyhistidine tag (N, cleaved yes); proTEV cleavage site (pro-peptide linker) (N, cleaved yes); made in house; host or cells: HEK-293 (suspension-adapted)
# [4] = Table 1; Method #1; cited from earlier work
# [5] = Table 1; Method #3; cited from earlier work
# human plasma Kallikrein [6] = target: T2, human plasma Kallikrein (Homo sapiens, UniProt P03952); test: Functional enzyme inhibition assay with fluorogenic substrate Z-PheArg-AMC, human plasma Kallikrein; format: biochemical; conditions: for F (Kivar/KiWT): ratio of Ki to wild type
# T2 construct: purchased Stratech, UK
# Method in brief: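 Rates of AMC release (excitation 360 nm, emission 460 nm) from 100 μM final Z-PheArg-AMC, 4% DMSO, were taken over the linear phase, typically 5 to 45 minutes. IC50 from four-parameter non-linear regression; Ki also derived.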
# [7] = Plasma stability / fragment profiling Method #2 (MALDI-TOF, 95% plasma), human plasma; format: in vitro ADME
# Method in brief: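 Peptide at 50 uM final in 95% human plasma without PBS; timed samples frozen at −80 °C, then extracted with 1:1 acetonitrile:methanol. Supernatant mixed with 30 mM ammonium bicarbonate and analysed by MALDI-TOF; qualitative fragment profiling of relative stability over time.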
# human plasma Kallikrein [8] = target: T2, human plasma Kallikrein; test: Phage binding assay of individual clones, homogeneous plate-based binding to biotinylated human plasma Kallikrein; conditions: for BINDING ASSAY SIGNAL: Table 19, fixed WPAR motif library, selection output clones
# Description: Library transformant colonies were picked at random and grown as individual cultures in 2TY broth containing selective antibiotic. The picked colonies were DNA-sequenced using a QIAgen PyroMark Q96 DNA sequencer to reveal the amino-acid substitution present in each clone. Where isolated, a clone of each unique substitution was assayed for human plasma Kallikrein binding as follows. The phage-containing supernatant was harvested from the culture and phage were cyclised with tris bromomethyl benzene(TBMB) based on the methods of Heinis et al (Nature Chemical Biology vol. 5 pp 502-507 (2009)). The purified phage from this process were assayed for binding to biotinylated human plasma Kallikrein using a homogeneous plate-based binding assay; assay read-out measured on a BMG Labtech Pherastar FS plate reader. The quantitative binding data from triplicate assay samples was averaged (mean) and expressed as signal:background (where background was a sample assayed with no target material). The signal:background was expressed as a % of the parallel parent sample. Error bars denote standard deviation of the mean. Assays shown are representative of at least 2 independent experiments. The assay data was correlated with the peptide sequences. Substitutions marked in grey were not tested (a clone was not isolated from the random library sampling). A sample of a non-binding (arbitrary) bicycle was assayed in parallel to illustrate the assay baseline.
# Library transformant colonies, or selection output colonies, were picked and grown as individual cultures in 2TY broth containing selective antibiotic. The picked colonies were DNA-sequenced using a QIAgen PyroMark Q96 DNA sequencer to reveal the amino-acid substitution present in each clone, and were assayed for human plasma Kallikrein binding as follows. The phage-containing supernatant was harvested from the culture and phage were cyclised with tris bromomethyl benzene (TBMB) based on the methods of Heinis et al (Nature Chemical Biology vol. 5 pp 502-507 (2009)). The purified phage from this process were assayed for binding to biotinylated human plasma Kallikrein using a homogeneous plate-based binding assay; assay read-out measured on a BMG Labtech Pherastar FS plate reader. The quantitative binding data from duplicate assay samples was averaged (mean) and expressed as signal:background. Assay data shown is representative of at least 2 independent experiments. The assay data was correlated with the peptide sequences.
# human plasma Kallikrein [9] = target: T2, human plasma Kallikrein; test: Phage selections against human plasma Kallikrein (abundance in selection output); format: binding; conditions: Table 17; relative abundance in the total selection outputs
# Description: Glycerol stocks of phage libraries were diluted to OD600=0.1 in 500 ml 2YT/chloramphenicol (30 μg/ml) cultures and phage were produced at 30° C. over night (15-16 hrs). Phage were purified and chemically modified as described in Heinis, et al., Nat Chem Biol 2009, 5 (7), 502-7 Biotinylated hPK (3 μg) (IHPKA, from human plasma, Innovative Research, Novi, Mich., USA) was incubated with 50 μl pre-washed magnetic streptavidin beads (Dynal, M-280 from Invitrogen, Paisley, UK) for 10 minutes at RT. Beads were washed 3 times prior to blocking with 0.5 ml washing buffer (10 mM Tris-Cl, pH 7.4, 150 mM NaCl, 10 mM MgCl2, 1 mM CaCl2) containing 1% BSA and 0.1% Tween 20 for 30 minutes at RT with rotation. […] Blocked beads were then mixed with the blocked chemically modified phage and incubated for 30 minutes on a rotating wheel at
# RT. Beads were washed 8 times with washing buffer containing 0.1% Tween 20 and twice with washing buffer before incubation with 100 μl of 50 mM glycine, pH 2.2 for 5 minutes. Eluted phage were transferred to 50 μl of 1 M Tris-Cl, pH 8 for neutralization, incubated with 30 ml TG1 cells at OD600=0.4 for 90 minutes at 37° C. and the cells were plated on large 2YT/chloramphenicol plates. One or two additional rounds of panning were performed using the same procedures. In the second round of selection, neutravidin-coated magnetic beads were used to prevent the enrichment of streptavidin-specific peptides. The neutravidin beads were prepared by reacting 0.8 mg neutravidin (Pierce, Rockford, Ill., USA) with 0.5 ml tosyl-activated magnetic beads (Dynal, M-280 from Invitrogen, Paisley, UK) according to the supplier's instructions.
# The WPAR (SEQ ID No. 19) motif identified from Example 1 was analysed in the context of the 06-34-03 peptide, in order to identify alternatives or improvements to the WPAR motif. A library was constructed where positions 1, 6, 7, 8, 9 &10 of 06-34-03 were fixed and positions 2, 3, 4 & 5 were randomised (see ‘Randomisation of peptide domains—Library construction’ in Methods above). Selections against human plasma Kallikrein were performed at a variety of stringencies (see Phage selections' in Methods above). All output sequences were identified and analysed for target binding (see ‘Randomisation of peptide domains—Assay of binding of individual clones’ in Methods above). Table 17 lists each unique sequence, its relative abundance in the selection output (frequency), and a rank number according to target binding strength.
# [10] = Table 23, comparative stabilities estimated according to method #1
# [11] = rat plasma (95%), Table 2, ex vivo rat plasma, Method #3, read-out: Rat Plasma Stability (t½ in hrs) (converted)
# [12] = Table 1; read-out: Ki (nM) (rat kallikrein); cited from earlier work
# T1 sequence (P14272 391-638 limits assumed): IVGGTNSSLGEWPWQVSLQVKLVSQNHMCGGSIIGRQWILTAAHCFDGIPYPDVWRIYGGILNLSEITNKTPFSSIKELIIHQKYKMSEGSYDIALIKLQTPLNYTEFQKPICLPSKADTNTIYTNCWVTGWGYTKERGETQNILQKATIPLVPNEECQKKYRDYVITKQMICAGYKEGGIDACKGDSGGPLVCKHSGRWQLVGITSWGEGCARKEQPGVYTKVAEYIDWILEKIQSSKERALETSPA
# T2 sequence (P03952 20-638): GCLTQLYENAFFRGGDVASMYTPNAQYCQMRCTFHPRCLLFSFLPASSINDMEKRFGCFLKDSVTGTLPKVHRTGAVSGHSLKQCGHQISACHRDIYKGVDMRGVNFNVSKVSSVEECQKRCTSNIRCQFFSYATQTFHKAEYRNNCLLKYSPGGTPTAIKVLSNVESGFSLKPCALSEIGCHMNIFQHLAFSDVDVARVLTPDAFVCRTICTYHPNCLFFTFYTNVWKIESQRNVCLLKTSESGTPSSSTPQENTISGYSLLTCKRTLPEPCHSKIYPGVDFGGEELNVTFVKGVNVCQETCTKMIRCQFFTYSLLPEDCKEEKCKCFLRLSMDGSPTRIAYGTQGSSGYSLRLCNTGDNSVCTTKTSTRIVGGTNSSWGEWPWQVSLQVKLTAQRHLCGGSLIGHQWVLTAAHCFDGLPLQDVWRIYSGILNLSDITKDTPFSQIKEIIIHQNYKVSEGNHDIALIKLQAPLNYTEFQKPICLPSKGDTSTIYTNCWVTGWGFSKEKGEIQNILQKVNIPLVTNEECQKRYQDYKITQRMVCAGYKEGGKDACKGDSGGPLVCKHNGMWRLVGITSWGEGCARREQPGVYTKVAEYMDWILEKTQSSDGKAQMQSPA
Compound,"Observable in rat plasma, for days [1, 10]","half-life at 5 uM [2, 11]",half-life at 5 uM ([3]; human plasma (95%)),Ki (rat plasma Kallikrein; [12]),"Observable in rat plasma, for days [4]",t1/2 (hrs) in rat plasma [5],BINDING ASSAY SIGNAL (human plasma Kallikrein [8]),other results
CC(=O)N[C@H]1CSCc2cc3cc(c2)CSC[C@H](NC(=O)[C@H](Cc2ccc(NC(=N)N)cc2)NC(=O)[C@H](Cc2ccc(O)cc2)NC(=O)[C@@H]2CCCN2C(=O)[C@H](Cc2ccccc2)NC(=O)[C@H](CO)NC1=O)C(=O)N[C@@H](CC(C)C)C(=O)N[C@@H](Cc1c[nH]cn1)C(=O)N[C@@H](CCC(N)=O)C(=O)N[C@@H](CC(=O)O)C(=O)N[C@@H](CC(C)C)C(=O)N[C@H](C(N)=O)CSC3 [Ac-(06-34-18) Phe2 Tyr4 4GuanPhe5] (Ac-CSFPY[Phe(4-guanidino)]CLHQDLC-NH2; linker 1-7-13 via TBMB),>10 days,5 h,2.9 h,0.6 nM,>10 days,5.0 h,,
CC(=O)N[C@H]1CSCc2cc3cc(c2)CSC[C@H](NC(=O)[C@H](CCCCNC(=N)N)NC(=O)[C@H](Cc2ccc(O)cc2)NC(=O)[C@@H]2CCCN2C(=O)[C@H](Cc2ccccc2)NC(=O)[C@H](CO)NC1=O)C(=O)N[C@@H](CC(C)C)C(=O)N[C@@H](Cc1c[nH]cn1)C(=O)N[C@@H](CCC(N)=O)C(=O)N[C@@H](CC(=O)O)C(=O)N[C@@H](CC(C)C)C(=O)N[C@H](C(N)=O)CSC3 [Ac-(06-34-18) Phe2 Tyr4 HomoArg5] (Ac-CSFPY[hArg]CLHQDLC-NH2; linker 1-7-13 via TBMB),>10 days,12.2 h,2.1 h,16.2 nM,>10 days,12.2 h,,"t1/2 (hrs) in rat plasma ([2]; Table 23, method #3): 12.2 h; rat plasma stability enhanced by a factor ([2]; compared to parent Phe2 Tyr4 peptide): 13"
CC(=O)N[C@H]1CSCc2cc3cc(c2)CSC[C@H](NC(=O)[C@H](CCCNC(=N)N)N(C)C(=O)[C@H](Cc2ccc(O)cc2)NC(=O)[C@@H]2CCCN2C(=O)[C@H](Cc2ccccc2)NC(=O)[C@H](CO)NC1=O)C(=O)N[C@@H](CC(C)C)C(=O)N[C@@H](Cc1c[nH]cn1)C(=O)N[C@@H](CCC(N)=O)C(=O)N[C@@H](CC(=O)O)C(=O)N[C@@H](CC(C)C)C(=O)N[C@H](C(N)=O)CSC3 [Ac-(06-34-18) Phe2 Tyr4 NMeArg5] (Ac-CSFPY[NMeR]CLHQDLC-NH2; linker 1-7-13 via TBMB),>10 days,> 20 h,1.7 h,64.3 nM,>10 days,>20 h,,"Ki (human plasma Kallikrein [6]; Table 2, read-out: Ki (nM) human Kai): 4 nM; half-life at 5 uM ([2]; rat, plasma, Table 23, method #3, read-out: t1/2 (hrs) in rat plasma (converted)): > 20 h"
CC(=O)N[C@H]1CSCc2cc3cc(c2)CSC[C@H](NC(=O)[C@H](CCCNC(=N)N)NC(=O)[C@H](Cc2ccc(O)cc2)NC(=O)[C@@H]2CCCN2C(=O)[C@H](Cc2ccccc2)NC(=O)[C@H](CO)NC1=O)C(=O)N[C@@H](CC(C)C)C(=O)N[C@@H](Cc1c[nH]cn1)C(=O)N[C@@H](CCC(N)=O)C(=O)N[C@@H](CC(=O)O)C(=O)N[C@@H](CC(C)C)C(=O)N[C@H](C(N)=O)CSC3 [Ac-(06-34-18) Phe2 Tyr4] (Ac-CSFPYRCLHQDLC-NH2; linker 1-7-13 via TBMB),2 days,,,,2 days,0.9 h,,"Ki (human plasma Kallikrein [6]; Ki (nM) (human kallikrein), Table 26a, loop2 stability enhanced candidates): 0.9 nM; Ki (human plasma Kallikrein [6]; Ki (nM) human Kai, Table 2): 0.42 nM; F (Kivar/KiWT) (human plasma Kallikrein [6]; Table 3a): 1; F (Kivar/KiWT) (human plasma Kallikrein [6]; Table 24b): 1; Observable in rat plasma, for days ([1]; Table 21, method #1): 2 days; Fragments (human plasma) ([7]; Table 3a, peptide fragments observed after incubation in human plasma): -LHQ; degradation / fragments in human plasma (in words) ([7]; running text and figure legends): fragments with His7-Gln8, Leu6, and Leu6-His7-Gln8 removed; Rat Plasma Stability (t½ in hrs) ([2]; Table 2, ex vivo rat plasma, Method #3): 0.9 h; t1/2 (hrs) in rat plasma ([2]; Table 23, method #3): 0.9 h; half-life at 5 uM ([2]; rat, plasma, method #3, read-out: half-life in rat plasma (t1/2) (converted)): 0.9 h; half-life at 5 uM [3]: 1.4 h; Ki (rat plasma Kallikrein; read-out: Ki (nM) (rat kallikrein); Table 1; cited from earlier work): 7.6 nM"
CAWPARCTHDDLC,,,,,,,84,
CLWPARCLTIELC,,,,,,,59,
CQWPARCTHTDLC,,,,,,,91,
CSWPARCTHTDLC,,,,,,,83,
CSWPYHCTHQDLC,,,,,,,,"RANK (human plasma Kallikrein [8]; Table 17, rank according to Kallikrein binding, positions 2-5 of 06-34-03 randomised): 39; FREQUENCY (human plasma Kallikrein [9]): 1"
